Experiment [1] relates to HEK-Blue™ IFNγ reporter cells. Kind of experiment: HEK-Blue IFNγ reporter assay (SEAP) for determining selectivity. The format is cell-based. As to conditions: 50 ng/mL human recombinant IFNγ, read-out: IFN-γ (SEAP selectivity, IC50). On the procedure:
(§1) Example B-3: HEK-Blue™ IL-2 and IFNγ Reporter Assays for Determining Selectivity
(§2) HEK-Blue™ IL-2 and IFNγ reporter cells with a stably-integrated cytokine receptor and STAT5 or STAT1 express STAT-inducible secreted embryonic alkaline phosphatase (SEAP) reporter gene upon cytokine stimulation. These cells were plated in DMEM (Gibco) containing 10% heat-inactivated FBS (Gibco) and 100 U/mL PenStrep (Gibco) at 37° C. under 5% CO2 conditions for 20-22 hours. The cells were then pre-treated with serially diluted test compounds for 60 min prior to stimulation with either 4 ng/mL human recombinant IL-2 (Miltenyl Biotech) or 50 ng/mL human recombinant IFNγ (InvivoGen) for 24 hours. SEAP induction was measured using the QUANTI-Blue™ Solution (InvivoGen) according to the manufacturer's instructions.

The next experiment deals with T1, JAK3-JH1 (Homo sapiens, UniProt P52333).
T1 construct: recombinant purified His or GST-tagged catalytic domain for each enzyme; purchased Carna biosciences 08-046
T1 sequence (P52333 822-1111 limits assumed): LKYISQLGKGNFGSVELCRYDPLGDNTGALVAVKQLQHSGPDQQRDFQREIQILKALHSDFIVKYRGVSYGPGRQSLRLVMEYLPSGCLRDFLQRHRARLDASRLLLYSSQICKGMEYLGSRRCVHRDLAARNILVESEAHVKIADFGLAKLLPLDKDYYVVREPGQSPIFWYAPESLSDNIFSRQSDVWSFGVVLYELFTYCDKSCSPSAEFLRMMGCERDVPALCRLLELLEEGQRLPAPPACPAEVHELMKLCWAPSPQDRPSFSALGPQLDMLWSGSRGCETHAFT
Kind of experiment: HTRF-based selectivity assay, JAK3 catalytic domain. The format is biochemical. The note with it: kinase domain (JH1), ATP 2.12 μM. Here is the method: (§3) Example B-2: HTRF-Based Selectivity Assay
(§4) The ability of compounds to inhibit the activity of JAK1, JAK2, JAK3 and TYK2 is measured using a recombinant purified His or GST-tagged catalytic domain for each enzyme (JAK1, JAK2 and TYK2 are generated in-house; JAK3 was purchased from Carna biosciences, Cat #08-046) in an HTRF format biochemical assay. The reactions employs a commercial peptide substrate from Cisbio (Cat #62TK0PEC). The basic assay protocol is as follows: first, 2.5 μL of diluted compounds (4×) in DMSO are dispensed into a 384-well Optiplate. Next, 2.5 μL of enzyme (final concentrations for enzymes are: TYK2—700 ng/mL, JAK1—80.6 ng/mL, JAK2—2.1 ng/mL and JAK3—171.8 ng/mL) is added and incubated at RT for 5-20 min. Finally, 5 μl of mixture of 2×ATP [Final concentration 20 μM for TYK2, 21.43 μM for JAK1, 14.7 μM for JAK2 and 2.12 μM for JAK3]+2× Substrate [Final concentration 217 nM for TYK2, 454.7 nM for JAK1, 200 nM for JAK2 and 257.4 nM for JAK3] is added to 384 well Optiplate. Composition of Kinase assay buffer used in the assay is as follows: HEPES 50 mM, EGTA 1 mM, MgCl2 10 mM, DTT 2 mM, Tween-20 0.01% and water. Then the plates are shaken and then incubated at 26.5° C. for 60 min.

Experiment [2] deals with T2, TYK2 Pseudokinase (JH2) (Homo sapiens, UniProt P29597). Kind of experiment: HEK-Blue IFNα/β reporter assay (SEAP) for profiling TYK2 pseudokinase (JH2) inhibition. As to conditions: HEK-Blue IFNα/β cells, 1 ng/mL human recombinant IFNα, read-out: IFNα (TYK2 inhibitory activity, IC50). Type of experiment: cell-based. On the procedure: (§5) Example B-1: HEK-Blue™ IL-23 and IFNα/β Reporter Assays for Profiling TYK2 Pseudokinase (JH2) Inhibition
T2 sequence (P29597 whole entry): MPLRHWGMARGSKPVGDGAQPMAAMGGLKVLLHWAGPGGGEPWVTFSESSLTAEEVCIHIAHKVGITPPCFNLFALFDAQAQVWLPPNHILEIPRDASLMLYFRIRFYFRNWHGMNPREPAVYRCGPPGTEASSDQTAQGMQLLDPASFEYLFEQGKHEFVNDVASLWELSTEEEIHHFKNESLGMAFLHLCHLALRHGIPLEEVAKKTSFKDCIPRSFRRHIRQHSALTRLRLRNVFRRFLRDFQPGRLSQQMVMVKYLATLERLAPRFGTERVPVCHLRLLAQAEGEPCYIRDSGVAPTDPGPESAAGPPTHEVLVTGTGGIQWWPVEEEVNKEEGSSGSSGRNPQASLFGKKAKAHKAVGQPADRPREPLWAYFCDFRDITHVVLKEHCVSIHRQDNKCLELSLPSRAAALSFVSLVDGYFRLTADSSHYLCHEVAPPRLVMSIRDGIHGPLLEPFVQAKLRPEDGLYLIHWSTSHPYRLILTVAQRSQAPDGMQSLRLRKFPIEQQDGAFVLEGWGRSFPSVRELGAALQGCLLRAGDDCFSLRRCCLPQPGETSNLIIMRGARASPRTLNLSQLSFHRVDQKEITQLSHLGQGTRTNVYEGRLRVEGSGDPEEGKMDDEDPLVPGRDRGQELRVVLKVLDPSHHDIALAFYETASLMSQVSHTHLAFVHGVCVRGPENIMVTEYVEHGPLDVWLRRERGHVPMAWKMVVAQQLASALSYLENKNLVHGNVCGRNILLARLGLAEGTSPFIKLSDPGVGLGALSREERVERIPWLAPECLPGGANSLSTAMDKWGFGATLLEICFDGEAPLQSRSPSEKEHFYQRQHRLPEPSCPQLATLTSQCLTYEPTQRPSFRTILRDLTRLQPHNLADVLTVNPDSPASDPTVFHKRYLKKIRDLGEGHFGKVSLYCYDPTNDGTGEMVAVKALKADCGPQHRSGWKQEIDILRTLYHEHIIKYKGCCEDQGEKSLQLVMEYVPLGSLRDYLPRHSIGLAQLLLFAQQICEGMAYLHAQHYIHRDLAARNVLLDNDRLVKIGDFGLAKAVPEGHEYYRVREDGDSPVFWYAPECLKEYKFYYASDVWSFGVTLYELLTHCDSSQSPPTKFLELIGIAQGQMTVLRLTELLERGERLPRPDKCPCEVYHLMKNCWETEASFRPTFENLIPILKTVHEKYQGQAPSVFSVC
(§6) HEK-Blue™ IL-23 and IFNα/β cells with a stably-integrated cytokine receptor and STAT3 or STAT1 express STAT-inducible secreted embryonic alkaline phosphatase (SEAP) reporter gene upon cytokine stimulation. These cells are plated in DMEM (Gibco) containing 10% heat-inactivated FBS (Gibco) and 100 U/mL PenStrep (Gibco) at 37° C. under 5% CO2 conditions for 20-22 hours. The cells are then pretreated with serially diluted test compounds for 60 min prior to stimulation with either 10 ng/mL human recombinant IL-23 (Miltenyl Biotech) or 1 ng/mL human recombinant IFNα (InvivoGen) for 22-24 hours for IL-23 or 16-18 h for IFNα. SEAP induction is measured using the QUANTI Blue™ Solution (InvivoGen) according to the manufacturer's instructions.

The next experiment addresses T3, JAK1-JH1 (Homo sapiens, UniProt P23458).
T3 construct: recombinant purified His or GST-tagged catalytic domain for each enzyme; made in house
Description: HTRF-based selectivity assay, JAK1 catalytic domain. Type of experiment: biochemical. As to conditions: kinase domain (JH1), ATP 21.43 μM. Here is the method:
as §3, §4

The subject of experiment [3] is HEK-Blue™ IL-2 reporter cells. Kind of experiment: HEK-Blue IL-2 reporter assay (SEAP) for determining selectivity. As to conditions: HEK-Blue IL-2 cells, 4 ng/mL human recombinant IL-2, SEAP reporter. Type of experiment: cell-based. Here is the method: as §1, §2
Another experiment deals with T4, JAK2-JH1 (Homo sapiens, UniProt O60674).
T4 construct: recombinant purified His or GST-tagged catalytic domain for each enzyme; made in house
T4 sequence (O60674 849-1124 limits assumed): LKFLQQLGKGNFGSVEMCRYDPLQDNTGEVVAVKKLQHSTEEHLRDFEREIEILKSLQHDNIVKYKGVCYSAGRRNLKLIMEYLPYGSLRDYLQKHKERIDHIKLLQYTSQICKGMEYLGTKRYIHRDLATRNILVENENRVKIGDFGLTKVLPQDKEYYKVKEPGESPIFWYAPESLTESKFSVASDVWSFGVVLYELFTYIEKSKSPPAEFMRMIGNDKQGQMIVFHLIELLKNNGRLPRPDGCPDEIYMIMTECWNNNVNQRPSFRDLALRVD
Kind of experiment: HTRF-based selectivity assay, JAK2 catalytic domain. Type of experiment: biochemical. As to conditions: kinase domain (JH1), ATP 14.7 μM. Here is the method: as §3, §4

Another experiment concerns the target T5, TYK2-JH1 (Homo sapiens, UniProt P29597).
T5 construct: recombinant purified His or GST-tagged catalytic domain for each enzyme; made in house
T5 sequence (P29597 897-1176 limits assumed): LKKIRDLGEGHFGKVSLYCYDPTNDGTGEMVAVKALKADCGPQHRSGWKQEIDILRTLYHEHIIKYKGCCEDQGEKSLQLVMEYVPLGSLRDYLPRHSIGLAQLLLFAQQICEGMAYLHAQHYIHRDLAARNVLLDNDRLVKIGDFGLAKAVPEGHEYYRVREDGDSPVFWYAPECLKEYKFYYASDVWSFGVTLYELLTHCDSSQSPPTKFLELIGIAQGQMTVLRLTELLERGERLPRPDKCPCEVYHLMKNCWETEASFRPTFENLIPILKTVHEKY
Kind of experiment: HTRF-based selectivity assay, TYK2 catalytic domain. Type of experiment: biochemical. As to conditions: kinase domain (JH1), ATP 20 μM. On the procedure:
as §3, §4

The target in experiment [4] is T2, TYK2 Pseudokinase (JH2). Description: HEK-Blue IL-23 reporter assay (SEAP) for profiling TYK2 pseudokinase (JH2) inhibition. The format is cell-based. On the set-up: HEK-Blue™ IL-23 and IFNα/β cells with a stably-integrated cytokine receptor and STAT3 or STAT1; endogenous in cells; host or cells: HEK-Blue IL-23 and HEK-Blue IFNα/β cells. As to conditions: HEK-Blue IL-23 cells, 10 ng/mL human recombinant IL-23, SEAP reporter; read-out: IL23 (TYK2 inhibitory activity, IC50). On the procedure:
as §5, §6

T3 sequence (P23458 875-1153 limits assumed): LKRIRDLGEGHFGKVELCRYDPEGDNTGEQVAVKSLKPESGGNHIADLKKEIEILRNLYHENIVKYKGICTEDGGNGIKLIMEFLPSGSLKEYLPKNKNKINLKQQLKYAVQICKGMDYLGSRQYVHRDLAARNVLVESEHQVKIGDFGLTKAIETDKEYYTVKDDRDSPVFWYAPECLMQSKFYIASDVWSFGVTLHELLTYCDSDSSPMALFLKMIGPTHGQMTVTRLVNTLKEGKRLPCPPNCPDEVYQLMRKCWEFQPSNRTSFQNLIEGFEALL

Take `[2H]C([2H])([2H])NC(=O)c1cnc(NC(=O)C2CC2)cc1Nc1cccc2c1N(C)Cc1nnnn1-2` [Compound 11, 6-(cyclopropanecarboxamido)-N-(methyl-d3)-4-((5-methyl-4,5-dihydrotetrazolo[1,5-a]quinoxalin-6-yl)amino)nicotinamide]: the IC50 in experiment [1] is > 1000 nM; at JAK3-JH1, > 1000 nM; on TYK2 Pseudokinase (JH2) [2], 30 to 300 nM; against JAK1-JH1, > 1000 nM; in experiment [3], > 1000 nM; against JAK2-JH1 it was > 1000 nM. Moreover, the figures for the 50% inhibitory concentration (IC50) on TYK2-JH1 and on TYK2 Pseudokinase (JH2) [4] were > 1000 nM and < 30 nM, respectively.

Take `[2H]C([2H])([2H])NC(=O)c1nnc(NC(=O)C2CC2)cc1Nc1cc(F)cc2c1N(C)Cc1nn(C)c(=O)n1-2` [Compound 18, 6-(cyclopropanecarboxamido)-4-((8-fluoro-2,5-dimethyl-1-oxo-1,2,4,5-tetrahydro-[1,2,4]triazolo[4,3-a]quinoxalin-6-yl)amino)-N-(methyl-d3)pyridazine-3-carboxamide]: the IC50 against JAK3-JH1 was > 1000 nM; at TYK2 Pseudokinase (JH2) [2], 30 to 300 nM; against JAK1-JH1, > 1000 nM; in experiment [3] it was > 1000 nM; against JAK2-JH1, > 1000 nM; on TYK2-JH1, > 1000 nM. At TYK2 Pseudokinase (JH2) [4], the IC50 is < 30 nM.

For `[2H]C([2H])([2H])NC(=O)c1cnc(Nc2cc(C)nc(C)n2)cc1Nc1cccc2c1N(C)Cc1nn(C)c(=O)n1-2` [Compound 12, 4-((2,5-dimethyl-1-oxo-1,2,4,5-tetrahydro-[1,2,4]triazolo[4,3-a]quinoxalin-6-yl)amino)-6-((2,6-dimethylpyrimidin-4-yl)amino)-N-(methyl-d3)nicotinamide], the concentration for half-maximal inhibition (IC50) in experiment [1] is > 1000 nM; against JAK3-JH1, > 1000 nM; on TYK2 Pseudokinase (JH2) [2], < 30 nM; at JAK1-JH1, > 1000 nM; in experiment [3], > 1000 nM; against JAK2-JH1 it was > 1000 nM. The half-inhibitory concentration (IC50) on TYK2-JH1 is > 1000 nM; at TYK2 Pseudokinase (JH2) [4] it was < 30 nM.

Take `[2H]C([2H])([2H])NC(=O)c1cnc(NC(=O)C2CC2)cc1Nc1cccc2c1N(C)Cc1nn(C)c(=O)n1-2` [Compound 8, 6-(cyclopropanecarboxamido)-4-((2,5-dimethyl-1-oxo-1,2,4,5-tetrahydro-[1,2,4]triazolo[4,3-a]quinoxalin-6-yl)amino)-N-(methyl-d3)nicotinamide]: the IC50 is 300 to 1000 nM in experiment [1]; > 1000 nM at JAK3-JH1; < 30 nM at TYK2 Pseudokinase (JH2) [2]; > 1000 nM at JAK1-JH1; > 1000 nM in experiment [3]; > 1000 nM against JAK2-JH1. The IC50 on TYK2-JH1 is > 1000 nM; at TYK2 Pseudokinase (JH2) [4] it was < 30 nM.

In the case of `[2H]C([2H])([2H])NC(=O)c1cnc(Nc2ccc(F)cn2)cc1Nc1cccc2c1N(C)Cc1nnnn1-2` [Compound 10, 6-((5-fluoropyridin-2-yl)amino)-N-(methyl-d3)-4-((5-methyl-4,5-dihydrotetrazolo[1,5-a]quinoxalin-6-yl)amino)nicotinamide], the IC50 in experiment [1] is > 1000 nM; against JAK3-JH1, > 1000 nM; at TYK2 Pseudokinase (JH2) [2] it was 30 to 300 nM; against JAK1-JH1 it was > 1000 nM; in experiment [3], > 1000 nM; on JAK2-JH1, > 1000 nM. In addition, the IC50 on TYK2-JH1 is > 1000 nM; on TYK2 Pseudokinase (JH2) [4] it was < 30 nM.

As to `[2H]C([2H])([2H])NC(=O)c1nnc(NC(=O)C2CC2)cc1Nc1nccc2c1N(C)Cc1nn(C)c(=O)n1-2` [Compound 20, 6-(cyclopropanecarboxamido)-4-((2,5-dimethyl-1-oxo-1,2,4,5-tetrahydropyrido[3,4-e][1,2,4]triazolo[4,3-a]pyrazin-6-yl)amino)-N-(methyl-d3)pyridazine-3-carboxamide], the IC50 on JAK3-JH1 is > 1000 nM; at TYK2 Pseudokinase (JH2) [2], < 30 nM; against JAK1-JH1, > 1000 nM; in experiment [3] it was > 1000 nM; on JAK2-JH1 it was > 1000 nM; on TYK2-JH1 it was > 1000 nM. On TYK2 Pseudokinase (JH2) [4], the concentration for half-maximal inhibition (IC50) was < 30 nM.

With `[2H]C([2H])([2H])NC(=O)c1cnc(Nc2ccc(F)cn2)cc1Nc1cccc2c1N(C)Cc1nn(C)c(=O)n1-2` [Compound 9, 4-((2,5-dimethyl-1-oxo-1,2,4,5-tetrahydro-[1,2,4]triazolo[4,3-a]quinoxalin-6-yl)amino)-6-((5-fluoropyridin-2-yl)amino)-N-(methyl-d3)nicotinamide], the IC50 in experiment [1] is > 1000 nM; against JAK3-JH1, > 1000 nM; at TYK2 Pseudokinase (JH2) [2], < 30 nM; against JAK1-JH1, > 1000 nM; in experiment [3], > 1000 nM; at JAK2-JH1 it was > 1000 nM. Besides, the IC50 against TYK2-JH1 was > 1000 nM; at TYK2 Pseudokinase (JH2) [4], < 30 nM.

As to `CNC(=O)c1cnc(Nc2ccc(F)cn2)cc1Nc1cccc2c1OCCn1nnnc1-2` [Compound 15, 4-((5,6-dihydrobenzo[f]tetrazolo[1,5-d][1,4]oxazepin-8-yl)amino)-6-((5-fluoropyridin-2-yl)amino)-N-methylnicotinamide], the 50% inhibitory concentration (IC50) against JAK3-JH1 is > 1000 nM; on TYK2 Pseudokinase (JH2) [2], 300 to 1000 nM; on JAK1-JH1 it was > 1000 nM; on JAK2-JH1, > 1000 nM; at TYK2-JH1 it was > 1000 nM; on TYK2 Pseudokinase (JH2) [4] it was 30 to 300 nM.

On to `[2H]C([2H])([2H])NC(=O)c1nnc(NC(=O)C2CC2)cc1Nc1cccc2c1N(C)Cc1nn(C)c(=O)n1-2` [Compound 17, 6-(cyclopropanecarboxamido)-4-((2,5-dimethyl-1-oxo-1,2,4,5-tetrahydro-[1,2,4]triazolo[4,3-a]quinoxalin-6-yl)amino)-N-(methyl-d3)pyridazine-3-carboxamide], for which the IC50 in experiment [1] is 30 to 300 nM; at JAK3-JH1 it was > 1000 nM; on TYK2 Pseudokinase (JH2) [2], < 30 nM; at JAK1-JH1, > 1000 nM; in experiment [3], > 1000 nM; at JAK2-JH1, > 1000 nM. In addition, the concentration for half-maximal inhibition (IC50) was > 1000 nM against TYK2-JH1 and < 30 nM on TYK2 Pseudokinase (JH2) [4].

The record behind these values is patent US20240189309A1, “TYK2 INHIBITORS AND USES THEREOF” (Sudo Biosciences Limited, priority 2021, published 2024).
